Results from US20050282755A1, “Compositions having antimicrobial activity and uses thereof” (priority 2004, published 2005).
≈ marks a conversion by molar mass, not a printed value. Where two headings read alike, the source gives them in different places. Non-standard residues stand in square brackets, D forms with d. Residues, ends and D or L forms follow the SMILES beside them. *: point of attachment. Lauroyl = CCCCCCCCCCCC(=O)*; dOrn = NCCC[C@@H](N)C(=O)O

Assays:
P. acnes = assay: Mouse skin assay, bactericidal activity on excised Balb/c skin; assay type: cell-based, Propionibacterium acnes; conditions: Incubation time 120 min; P. acnes untreated 0.9 × 10^8 cfu/ml
[1] = system: Staphylococcus aureus ATCC 29213; assay: MIC, NCCLS M7-A6 broth microdilution, cation-adjusted Mueller Hinton broth (Table 9, no superscript); assay type: cell-based; conditions: ATCC 29213
Method in brief: (§1)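 Broth microdilution in cation-adjusted Mueller Hinton broth, log-phase inoculum giving 5×10^5 to 1×10^6 CFU/milliliter per well. Overnight incubation at 37° C. MIC taken as lowest peptide concentration with no visible turbidity versus a no-peptide control.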

Salmonella dublin (Lane) = assay: MIC, NCCLS M7-A6 broth microdilution (Table 9, no superscript); assay type: cell-based
Method in brief: as §1

[2] = system: Propionibacterium acnes ATCC 6919; assay type: cell-based
Method in brief: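 MIC by non-standard broth microdilution in reinforced Clostridial broth, log-phase P. acnes inoculum at 5×10^5 to 1×10^6 CFU/mL. Plates were held anaerobically 48–72 h at 37° C; MIC was the lowest peptide concentration with no visible turbidity relative to the no-peptide control.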

S. aureus (Rosenbach) = assay: Broth microdilution assay for MIC (20% TSB, 50 mM Na2CO3, 1 mM MgCl2), Table 4A; assay type: cell-based, Staphylococcus aureus; conditions: 3 log or greater reduction in bacterial growth over 16 hours
Description: (§2) S. dublin (Lane), S. aureus (Rosenbach), P. acnes, ATCC 6919, E. coli K12 TOP10, and E. coli K12 55099 (protease neg.) bacterial strains were tested in the microbial inhibition assays described hereafter. The S. dublin (Lane), and S. aureus (Rosenbach) strains are available from ATCC (Staphylococcus aureus subsp. aureus Rosenbach (Number: 13150) and Salmonella choleraesuis serotype dublin (Number: 39184)). The strain of P. acnes was purchased from ATCC (strain #6919) (Manassas, Va.). The E. coli K12 strains TOP 10 and 55099 were purchased from Invitrogen (Carlsbad, Calif.) and ATCC respectively. HeLa cells were purchased from ATCC (CCL2). Tryptic soy broth (TSB), Brucella broth, reinforced Clostridial broth and agar were purchased from Becton & Dickinson (distributed by VWR, West Chester, Pa.). All plastic consumables were purchased from VWR (West Chester, Pa.). […]
(§3) The minimum inhibitory concentration (MIC) of peptide compositions for S. aureus, S. dublin and E. coli was determined in a broth microdilution assay. […] The MIC for each peptide for each microorganism was determined by three methods. The growth of bacteria was directly determined by measuring the absorption at 600 nm using a Versamax microplate reader (Molecular Devices). […] After incubation for 16 hours at 37° C. bacterial growth was evaluated and documented (Alpha Innotech gel documentation system).

S. dublin (Lane) = assay: Broth microdilution assay for MIC, Table 4A; assay type: cell-based, Salmonella dublin; conditions: 3 log or greater reduction in bacterial growth over 16 hours
Description: as §2, §3

human red blood cells = assay type: cell-based; conditions: red cells of human
Description: Hemoglobin-release assays with human red blood cells (RBC) were performed to determine the hemolytic activity of granulysin peptides. Human RBCs (San Diego Blood Bank, San Diego, Calif.) were washed three times in PBS buffer (8 mM Na2HPO4, 1.5 mM KH2PO4, 140 mM NaCl and 2.7 mM KCl, pH 7.4), resuspended in PBS to the concentration of 5% (v/v). The RBC were then exposed to different peptide compositions at various concentrations (100-6.25 micromolar) and incubated at 37° C. for 60 minutes in a total volume of 120 microliters. Every experiment included a negative control without peptide and maximum control treated with 5% TX-100 for complete hemoglobin release. Samples were centrifuged for 1 minute at 13,000 g to remove debris and intact cells. The hemoglobin-containing supernatant was removed and transferred to a microwell plate. Hemoglobin release was quantified at A540 using a Versamax plate reader (Molecular Devices). The degree of hemolysis is expressed as percentage of hemolysis compared to the […], using the following formula: % hemolysis=(sample−neg. control)/(max. control−neg. control)×100.

[3] = system: Escherichia coli ATCC 25922; assay: MIC, NCCLS M7-A6 broth microdilution (Table 9, no superscript); assay type: cell-based; conditions: ATCC 25922
Method in brief: as §1

[4] = system: Pseudomonas aeruginosa ATCC 27853; assay: as above; assay type: cell-based; conditions: ATCC 27853
Method in brief: as §1

[5] = system: Staphylococcus epidermidis ATCC 12228; assay: as above; assay type: cell-based; conditions: ATCC 12228
Method in brief: as §1

[6] = system: Propionibacterium acnes ATCC 6919; assay: MIC, agar dilution method NCCLS M11-A6, Brucella agar, anaerobic (Table 9, superscript c); assay type: cell-based; conditions: letter c: agar dilution NCCLS M11-A6, Brucella agar, anaerobic
Method in brief: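 Agar dilution per NCCLS M11-A6 on Brucella agar; final inoculum 1.5×10^8 CFU/milliliter applied to plates, incubated 48-96 hours at 37° C. under anaerobic (GasPak) conditions. MIC = lowest peptide concentration with no colony growth.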

[7] = system: Candida albicans ATCC 18804; assay: MIC in yeasts, NCCLS M27-A2 broth microdilution, RPMI 1640 (Table 9, letter e); assay type: cell-based; conditions: ATCC 18804
Method in brief: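 Broth microdilution per NCCLS M27-A2 in RPMI 1640 with glutamine and phenol red, final inoculum 0.5×10^3–2.5×10^3 CFU/milliliter. Incubated 24 to 48 hours at 37° C; MIC is the lowest peptide concentration with no visible growth.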

E. coli K12 TOP10 = conditions: 3 log or greater reduction in bacterial growth over 16 hours
[8] = system: E. coli K12 55099 (protease neg.); conditions: 3 log or greater reduction in bacterial growth over 16 hours
[9] = system: Pseudomonas aeruginosa ATCC 27853; conditions: ATCC 27853, pH 7.4
[10] = system: Staphylococcus epidermidis ATCC 12228; conditions: ATCC 12228, pH 7.4

Question: CSCC[C@@H](NC(=O)[C@@H](Cc1ccccc1)NC(=O)[C@@H](CC(N)=O)NC(=O)[C@@H](CCCNC(=N)N)NC(=O)[C@@H](CO)NC(=O)[C@@H](Cc1c[nH]c2ccccc12)NC(=O)[C@@H](CC(=O)O)NC(=O)[C@@H](CCCNC(=N)N)NC(=O)[C@@H](Cc1c[nH]c2ccccc12)NC(=O)[C@@H](CCCNC(=N)N)NC(=O)[C@@H](CO)NC(=O)[C@@H](CCCNC(=N)N)NC(=O)CNC(=O)[C@H](NC(=O)[C@@H](CCCNC(=N)N)NC(=O)[C@@H](CO)NC(=O)[C@H](NC(=O)[C@@H](CCCNC(=N)N)NC(=O)[C@H](NC(C)=O)[C@H](C)O)C(C)C)[C@H](C)O)C(=O)N[C@H](CCCNC(=N)N)C(=O)N[C@H](CCCN)C(=O)N[C@H](CCCN)C(=O)N[C@H](CCCN)C(=O)N[C@H](CCCN)C(=O)N[C@H](CCCN)C(=O)N[C@H](CCCN)C(=O)N[C@H](CCCN)C(=O)N[C@H](CCCN)C(N)=O [Peptide 35, Ac-trvsrtgrsrwrdwsrnfmroooooooo-NH2] (Ac-[dT][dR][dV][dS][dR][dT]G[dR][dS][dR][dW][dR][dD][dW][dS][dR][dN][dF][dM][dR][dOrn][dOrn][dOrn][dOrn][dOrn][dOrn][dOrn][dOrn]-NH2) was tested. Which “P. acnes recovered from mouse skin” value (P. acnes) did it give?
Answer: 4.5 × 10^4 cfu/ml

Question: What about the “MIC S. aureus” value [1] of the same molecule?
Answer: >64 µg/mL

Question: What about the “MIC S. dublin” value (Salmonella dublin (Lane)) of the same molecule?
Answer: >64 µg/mL

Question: And the “MIC P. acnes” value [2]?
Answer: 6 µg·days/mL

Question: With CCCCCCCCCCCC(=O)N[C@H](C(=O)N[C@@H](CCCNC(=N)N)C(=O)N[C@H](C(=O)N[C@@H](CO)C(=O)N[C@@H](CCCNC(=N)N)C(=O)N[C@H](C(=O)NCC(=O)N[C@@H](CCCNC(=N)N)C(=O)N[C@@H](CO)C(=O)N[C@@H](CCCNC(=N)N)C(=O)N[C@@H](Cc1c[nH]c2ccccc12)C(=O)N[C@@H](CCCNC(=N)N)C(=O)N[C@@H](CC(=O)O)C(=O)N[C@@H](Cc1c[nH]c2ccccc12)C(=O)N[C@@H](CO)C(=O)N[C@@H](CCCNC(=N)N)C(=O)N[C@@H](CC(N)=O)C(=O)N[C@@H](Cc1ccccc1)C(=O)N[C@@H](CCSC)C(=O)N[C@@H](CCCNC(=N)N)C(=O)N[C@@H](CCCCN)C(N)=O)[C@@H](C)O)C(C)C)[C@@H](C)O [Peptide 64] (Lauroyl-TRVSRTGRSRWRDWSRNFMRK-NH2) as the molecule, how does the “Minimum inhibitory concentration (MIC) S. aureus” value (S. aureus (Rosenbach)) read?
Answer: 2 µM (≈ 5.84 µg/mL)

Question: And the “Minimum inhibitory concentration (MIC) S. dublin” value (S. dublin (Lane))?
Answer: 8 µM (≈ 23.4 µg/mL)

Question: And the “Hemolytic effect on human red blood cells” value (“Hemolytic effect” below) (human red blood cells; 6.25 Micromolar)?
Answer: 14%

Question: What about the “Hemolytic effect” value (human red blood cells; 12.5 Micromolar) of the same molecule?
Answer: 15%

Question: And the “Hemolytic effect” value (human red blood cells; 25 Micromolar)?
Answer: 29%

Question: And the “Hemolytic effect” value (human red blood cells; 50 Micromolar)?
Answer: 46%

Question: And the “Hemolytic effect” value (human red blood cells; 100 Micromolar)?
Answer: 81%

Question: What about the “MIC S. aureus” value [1] of the same molecule?
Answer: 8 µg/mL (≈ 2.74 µM)

Question: What about the “MIC E. coli” value [3] of the same molecule?
Answer: 64 µg/mL (≈ 21.9 µM)

Question: What about the “MIC P. aeruginosa” value [4] of the same molecule?
Answer: >64 µg/mL

Question: What about the “MIC S. dublin” value (Salmonella dublin (Lane)) of the same molecule?
Answer: 16 µg/mL (≈ 5.48 µM)

Question: And the “MIC S. epidermidis” value [5]?
Answer: 1 µg/mL (≈ 0.342 µM)

Question: And the “MIC P. acnes” value [6]?
Answer: >64c ug/mL

Question: What about the “MIC C. albicans” value [7] of the same molecule?
Answer: 32e ug/mL

Question: And the “Minimum inhibitory concentration (MIC) E. coli Top10” value (E. coli K12 TOP10)?
Answer: 2 µM (≈ 5.84 µg/mL)

Question: What about the “Minimum inhibitory concentration (MIC) E. coli 55099” value [8] of the same molecule?
Answer: 1 µM (≈ 2.92 µg/mL)

Question: Which results are given for CSCC[C@@H](NC(=O)[C@@H](Cc1ccccc1)NC(=O)[C@@H](CC(N)=O)NC(=O)[C@@H](CCCNC(=N)N)NC(=O)[C@@H](C)NC(=O)[C@H](NC(=O)[C@@H](CC(=O)O)NC(=O)[C@@H](CCCNC(=N)N)NC(=O)[C@@H](Cc1c[nH]c2ccccc12)NC(=O)[C@@H](CCCNC(=N)N)NC(=O)[C@@H](CO)NC(=O)[C@@H](CCCNC(=N)N)NC(C)=O)C(C)C)C(=O)N[C@H](CCCNC(=N)N)C(N)=O [Peptide 96, Ac-rsrwrdvarnfmr-NH2] (Ac-[dR][dS][dR][dW][dR][dD][dV][dA][dR][dN][dF][dM][dR]-NH2)?
Answer: MIC S. aureus [1]: >64 µg/mL; MIC S. dublin (Salmonella dublin (Lane)): >64 µg/mL; MIC P. acnes [2]: 12.5 µg·days/mL; MIC C. albicans [7]: 8e ug/mL; MIC P. aeruginosa [9]: 50b ug/mL; MIC S. epidermidis [10]: 12.5b ug/mL
